Test results reported in US20200138827A1, “SMALL MOLECULE MODULATORS OF HUMAN STING” (Curadev Pharma Limited, priority 2017, published 2020).
Where two headings read alike, the source gives them in different places.

Columns and labels:
hSTING(HAQ) = molecular target: T1, hSTING(HAQ) (Homo sapiens, UniProt Q86WV6, G230A/H232R/R293Q/R71H); assay: Luciferase reporter assay in HEK293T-hSTING-Luciferase cells, HAQ polymorph; format: cell-based; settings: 20 hr stimulation, read-out: HAQ activity (EC50 range)
T1 construct: host or cells: HEK293T
Method in brief: (§1)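 HEK293T clones stably expressed the given human STING variant plus luciferase under an ISRE/ISG54 IRF-inducible promoter. 5×10^5 cells were stimulated with compound for 20 hr, and secreted luciferase in the supernatant was measured by Quanti-Luc luminescence.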

WT/R232 STING protein = molecular target: T2, WT/R232 STING protein (Homo sapiens, UniProt Q86WV6, H232R); assay: Luciferase reporter assay in HEK293T-hSTING-Luciferase cells, WT/R232; format: cell-based; settings: 20 hr stimulation, read-out: R232 Activity (EC50 range)
T2 construct: host or cells: HEK293T
Method in brief: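 […], read by luminescence from supernatant after 20 h compound stimulation. Cells: clonally selected HEK293T (5×10^5/well) stably carrying WT/R232 human STING and a luciferase reporter under five tandem ISREs fused to an ISG54 minimal promoter.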

IRF pathway = assay: Reporter gene expression assay in THP1-Dual cells, IRF axis (secreted Lucia luciferase); format: cell-based, human; settings: read-out: THP-IRF activity (EC50 range)
Method in brief: (§2)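 THP-1-derived cells carrying inducible NF-κB-SEAP and IRF-Lucia reporters, seeded at 5×10^5 and stimulated with compounds. After […], supernatant SEAP read with QUANTI-Blue and Lucia luciferase with QUANTI-Luc.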

NF-κB pathway = assay: Reporter gene expression assay in THP1-Dual cells, NFkB axis (secreted SEAP); format: cell-based, human; settings: read-out: THP-NFKB activity (EC50 range)
Method in brief: as §2

hSTING(H232) = molecular target: T3, hSTING(H232) (Homo sapiens, UniProt Q86WV6); assay: Luciferase reporter assay in HEK293T-hSTING-Luciferase cells, H232 polymorph; format: cell-based; settings: 20 hr stimulation, read-out: H232 activity (EC50 range)
T3 construct: host or cells: HEK293T
Method in brief: as §1

T2 sequence (Q86WV6 whole entry H232R): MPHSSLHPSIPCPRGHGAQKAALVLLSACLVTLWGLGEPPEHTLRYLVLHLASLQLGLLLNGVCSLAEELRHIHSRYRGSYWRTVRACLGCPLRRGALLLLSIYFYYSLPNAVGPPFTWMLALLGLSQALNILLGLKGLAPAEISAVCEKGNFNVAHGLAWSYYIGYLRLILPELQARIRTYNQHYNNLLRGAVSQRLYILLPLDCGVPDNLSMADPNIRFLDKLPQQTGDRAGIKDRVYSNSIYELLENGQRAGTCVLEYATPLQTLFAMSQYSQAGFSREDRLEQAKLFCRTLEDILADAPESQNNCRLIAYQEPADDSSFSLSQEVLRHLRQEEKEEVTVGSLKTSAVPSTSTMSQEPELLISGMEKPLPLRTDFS
T1 sequence (Q86WV6 whole entry R71H/G230A/H232R/R293Q): as the sequence (Q86WV6 whole entry H232R) above, with R71H, G230A, R293Q counted along it
T3 sequence (Q86WV6 whole entry): as the sequence (Q86WV6 whole entry H232R) above, with R232H counted along it

EC50 (hSTING(HAQ)) [µM]	EC50 (WT/R232 STING protein) [µM]	EC50 (IRF pathway; Homo sapiens, THP1-Dual) [µM]	EC50 (NF-κB pathway; Homo sapiens, THP1-Dual) [µM]	EC50 (hSTING(H232)) [µM]	EC50 (IRF pathway) [µM]	EC50 (NF-κB pathway) [µM]	Structure (SMILES)
< 1	< 1	1 to 10	1 to 10	< 1	–	–	CC1Sc2ncc(C(=O)NCc3cc4ccccc4o3)cc2N(Cc2c(F)cccc2Cl)C1=O (stereo not drawn) [Example 199, N-(benzofuran-2-ylmethyl)-1-(2-chloro-6-fluorobenzyl)-3-methyl-2-oxo-2,3-dihydro-1H-pyrido[2,3-b][1,4]thiazine-7-carboxamide]
1 to 10	< 1	> 10	> 10	1 to 10	–	–	O=C(NCc1c(F)cc(F)cc1F)c1cnc2c(c1)N(Cc1cc(F)cc(F)c1)C(=O)CS2 [Example 200, 1-(3,5-difluorobenzyl)-2-oxo-N-(2,4,6-trifluorobenzyl)-2,3-dihydro-1H-pyrido[2,3-b] [1,4]thiazine-7-carboxamide]
1 to 10	1 to 10	> 10	> 10	1 to 10	–	–	CC1Sc2ncc(C(=O)NCc3ccccc3)cc2N(Cc2c(F)cccc2Cl)C1=O (stereo not drawn) [Example 201, N-benzyl-1-(2-chloro-6-fluorobenzyl)-3-methyl-2-oxo-2,3-dihydro-1H-pyrido[2,3-b][1,4]thiazine-7-carboxamide]
1 to 10	1 to 10	> 10	> 10	1 to 10	–	–	Cc1ccc(CNC(=O)c2ccc3c(n2)N(Cc2c(F)cccc2Cl)C(=O)C(C)S3)o1 (stereo not drawn) [Example 202, 4-(2-chloro-6-fluorobenzyl)-2-methyl-N-((5-methylfuran-2-yl)methyl)-3-oxo-3,4-dihydro-2H-pyrido[3,2-b] [1,4]thiazine-6-carboxamide]
1 to 10	1 to 10	–	–	1 to 10	> 10	> 10	Cc1ccc(CNC(=O)c2ccc3c(n2)N(Cc2cc(F)cc(F)c2)C(=O)C(C)S3)o1 (stereo not drawn) [Example 203, 4-(3,5-difluorobenzyl)-2-methyl-N-((5-methylfuran-2-yl)methyl)-3-oxo-3,4-dihydro-2H-pyrido[3,2-b][1,4]thiazine-6-carboxamide]
1 to 10	< 1	1 to 10	1 to 10	1 to 10	–	–	CC1(C)Sc2ccc(C(=O)NCc3c(F)cc(F)cc3F)cc2N(Cc2ccccc2F)C1=O [Example 218, 4-(2-fluorobenzyl)-2,2-dimethyl-3-oxo-N-(2,4,6-trifluorobenzyl)-3,4-dihydro-2H-benzo[b][1,4] thiazine-6-carboxamide]
1 to 10	< 1	> 10	> 10	1 to 10	–	–	CC1Oc2ccc(C(=O)NCc3c(F)cc(F)cc3F)cc2N(Cc2cc(F)cc(F)c2)C1=O (stereo not drawn) [Example 232, 2-Methyl-4-(3,5-difluorobenzvyl)-3-oxo-N-(2,4,6-trifluorobenzyl)-3,4-dihydro-2H-1,4-benzoxazine-6-carboxamide]
1 to 10	< 1	> 10	> 10	1 to 10	–	–	C[C@H]1Oc2ccc(C(=O)NCc3c(F)cc(F)cc3F)cc2N(Cc2cc(F)cc(F)c2)C1=O [Example 233, (R)-4-(3,5-difluorobenzyl)-2-methyl-3-oxo-N-(2,4.,6-trifluorobenzyl)-3,4-dihydro-2H-benzo[b-1,4]oxazine-6-carboxamide]
1 to 10	< 1	> 10	> 10	1 to 10	–	–	C[C@@H]1Oc2ccc(C(=O)NCc3c(F)cc(F)cc3F)cc2N(Cc2cc(F)cc(F)c2)C1=O [Example 234, (S)-4-(3,5-difluorobenzyl)-2-methyl-3-oxo-N-(2,4,6-trifluorobenzyl)-3,4-dihydro-2H-benzo[b-1,4]oxazine-6-carboxamide]
1 to 10	< 1	1 to 10	1 to 10	1 to 10	–	–	C[C@@H]1Oc2ccc(C(=O)NCc3cc4ccccc4o3)cc2N(Cc2cc(F)cc(F)c2)C1=O [Example 235, (S)-N-(benzofuran-2-ylmethyl)-4-(3,5-difluorobenzyl)-2-methyl-3-oxo-3,4-dihydro-2H-benzo[b-1,4]oxazine-6-carboxamide]
1 to 10	< 1	–	–	> 10	> 10	> 10	C[C@H]1Oc2ccc(C(=O)NCc3c(F)cc(F)cc3F)cc2N(Cc2cc(F)cc(F)c2)C1=O [Example 242, (R)-4-(3,5-difluorobenzyl)-2-methyl-3-oxo-N-(2,4,6-trifluorobenzyl)-3,4-dihydro-2H-benzo[b][1,4] oxazine-6-carboxamide]
< 1	< 1	–	–	< 1	> 10	> 10	C[C@@H]1Oc2ccc(C(=O)NCc3c(F)cc(F)cc3F)cc2N(Cc2cc(F)cc(F)c2)C1=O [Example 243, (S)-4-(3,5-difluorobenzyl)-2-methyl-3-oxo-N-(2,4,6-trifluorobenzyl)-3,4-dihydro-2H-benzo[b][1,4] oxazine-6-carboxamide]
> 10	1 to 10	> 10	> 10	> 10	–	–	O=C(NCc1c(F)cc(F)cc1F)c1ccc2c(c1)N(C(=O)c1c(F)cccc1Cl)CCS2 [Example 258, 4-(2-chloro-6-fluorobenzoyl)-N-(2,4,6-trifluorobenzyl)-3,4-dihydro-2H-benzo[b][1,4]thiazine-6-carboxamide]
< 1	< 1	1 to 10	1 to 10	< 1	–	–	CC1Cc2ccc(C(=O)NCc3c(F)cc(F)cc3F)cc2N(Cc2c(F)cccc2Cl)C1=O (stereo not drawn) [Example 267, 1-(2-Chloro-6-fluorobenzyl)-3-methyl-2-oxo-N-(2,4,6-trifluorobenzyl)-1,2,3,4-tetrahydroquinoline-7-carboxamide]
1 to 10	< 1	> 10	> 10	> 10	–	–	O=C(NCc1ccc(F)cc1)c1ccc2c(c1)N(Cc1c(F)cccc1Cl)C(=O)CC2 [Example 269, 1-(2-chloro-6-fluorobenzyl)-N-(4-fluorobenzyl)-2-oxo-1,2,3,4-tetrahydroquinoline-7-carboxamide]
1 to 10	< 1	> 10	1 to 10	< 1	–	–	O=C(NCc1c(F)cc(F)cc1F)c1ccc2c(c1)N(Cc1c(F)cccc1Cl)C(=O)CC2 [Example 270, 1-(2-chloro-6-fluorobenzyl)-2-oxo-N-(2,4,6-trifluorobenzyl)-1,2,3,4-tetrahydroquinoline-7-carboxamide]
< 1	< 1	1 to 10	1 to 10	< 1	–	–	CC1(C)CC(=O)N(Cc2cc(F)cc(F)c2)c2cc(C(=O)NCc3c(F)cc(F)cc3F)ccc21 [Example 271, 1-(3,5-difluorobenzyl)-4,4-dimethyl-2-oxo-N-(2,4,6-trifluorobenzyl)-1,2,3,4-tetrahydroquinoline-7-carboxamide]
> 10	1 to 10	> 10	> 10	> 10	–	–	O=C(NCc1ccc(F)cc1F)c1ccc2c(n1)N(Cc1cc(F)cc(F)c1)C(=O)CC2 [Example 279, N-(2,4-difluorobenzyl)-8-(3,5-difluorobenzyl)-7-oxo-5,6,7,8-tetrahydro-1,8-naphthyridine-2-carboxamide]
1 to 10	1 to 10	> 10	> 10	1 to 10	–	–	O=C(NCc1cc2ccccc2o1)c1ccc2c(n1)N(Cc1cc(F)cc(F)c1)C(=O)CC2 [Example 281, N-(benzofuran-2-ylmethyl)-8-(3,5-difluorobenzyl)-7-oxo-5,6,7,8-tetrahydro-1,8-naphthyridine-2-carboxamide]
> 10	< 1	> 10	> 10	> 10	–	–	O=C(NCc1c(F)cc(F)cc1F)c1ccc2c(c1)N(Cc1cc(F)cc(F)c1)S(=O)(=O)CC2 [Example 284, 1-(3,5-Difluorobenzyl)-N-(2,4,6-trifluorobenzyl)-3,4-dihydro-1H-benzo[c][1,2]thiazine-7-carboxamide 2,2-dioxide]
1 to 10	1 to 10	> 10	> 10	1 to 10	–	–	CC1Cc2ccc(C(=O)NCc3c(F)cc(F)cc3F)cc2N(Cc2cc(F)cc(F)c2)S1(=O)=O (stereo not drawn) [Example 285, 1-(3,5-Difluorobenzyl)-3-methyl-N-(2,4,6-trifluorobenzyl)-3,4-dihydro-1H-benzo[c][1,2]thiazine-7-carboxamide 2,2-dioxide]
